Test results reported in paper PMC2784989 (Journal of medicinal chemistry, 2009).
Blank lines part the entries; values can stand above or below the compound they belong to.

Assays:
[1] = target: Tdp1 H493R (SCAN1 mutant) (Homo sapiens, UniProt Q9NUW8, H493R); assay: SCAN1 mutant gel assay of Tdp1-DNA covalent complex formation; assay type: biochemical; details: 100 nM H493R; DNA sequencing and protein SDS-PAGE gels
[2] = target: apurinic/apyrimidinic endonuclease (APE1) (Homo sapiens, UniProt P27695); assay: APE1 counter-screen gel-based assay; assay type: biochemical; details: up to 100 μM
Chain of apurinic/apyrimidinic endonuclease (APE1) (P27695 whole entry): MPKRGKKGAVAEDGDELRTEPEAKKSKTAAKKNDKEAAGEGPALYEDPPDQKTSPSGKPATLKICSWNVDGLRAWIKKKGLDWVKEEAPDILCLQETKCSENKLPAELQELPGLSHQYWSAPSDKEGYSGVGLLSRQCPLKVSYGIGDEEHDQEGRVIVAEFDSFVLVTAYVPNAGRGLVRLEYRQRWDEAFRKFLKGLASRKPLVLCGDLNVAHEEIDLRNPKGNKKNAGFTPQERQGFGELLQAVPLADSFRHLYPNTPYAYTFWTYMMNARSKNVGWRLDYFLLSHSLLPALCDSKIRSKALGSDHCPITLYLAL

[3] = tested on: CPT-induced Top1-DNA cleavage complexes; assay: Immunocomplex of enzyme; assay type: cell-based; details: data not shown
Tdp1 [4] = details: NCI-DTP diversity set screen; ref [31]; cited from earlier work
HCT116 cells = assay: Cellular studies alone and in combination with CPT; assay type: cell-based; details: data not shown
human Top1 = target: T1, human Top1 (Homo sapiens, UniProt P11387); assay: Top1 DNA relaxation counter-screen assay; assay type: biochemical; details: up to 100 μM
T1 sequence (P11387 1-765): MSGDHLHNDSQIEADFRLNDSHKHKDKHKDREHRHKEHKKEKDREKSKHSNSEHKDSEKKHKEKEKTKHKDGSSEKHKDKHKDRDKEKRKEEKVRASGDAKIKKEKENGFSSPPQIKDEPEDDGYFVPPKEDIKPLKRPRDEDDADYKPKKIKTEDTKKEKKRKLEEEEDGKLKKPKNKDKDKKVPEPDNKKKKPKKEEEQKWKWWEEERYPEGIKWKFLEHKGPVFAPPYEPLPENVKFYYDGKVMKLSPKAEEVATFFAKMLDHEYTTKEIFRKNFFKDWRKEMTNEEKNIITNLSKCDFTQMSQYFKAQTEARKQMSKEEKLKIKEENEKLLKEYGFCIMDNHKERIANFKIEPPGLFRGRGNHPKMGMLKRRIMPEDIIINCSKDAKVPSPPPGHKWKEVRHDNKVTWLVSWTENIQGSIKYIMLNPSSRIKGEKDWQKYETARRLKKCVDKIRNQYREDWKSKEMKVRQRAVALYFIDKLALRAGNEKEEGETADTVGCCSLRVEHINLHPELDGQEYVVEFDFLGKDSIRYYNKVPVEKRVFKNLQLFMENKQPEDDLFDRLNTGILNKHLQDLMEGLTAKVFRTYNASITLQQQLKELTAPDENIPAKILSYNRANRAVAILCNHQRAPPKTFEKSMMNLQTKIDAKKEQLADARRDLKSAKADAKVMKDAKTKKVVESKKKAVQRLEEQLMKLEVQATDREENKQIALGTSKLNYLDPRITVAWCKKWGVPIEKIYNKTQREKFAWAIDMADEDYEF

recombinant Tdp1 [5] = target: T2, recombinant Tdp1 (Homo sapiens, UniProt Q9NUW8); assay: Surface plasmon resonance direct binding; details: ten successive 2-fold dilutions from 100 μM
T2 sequence (Q9NUW8 whole entry): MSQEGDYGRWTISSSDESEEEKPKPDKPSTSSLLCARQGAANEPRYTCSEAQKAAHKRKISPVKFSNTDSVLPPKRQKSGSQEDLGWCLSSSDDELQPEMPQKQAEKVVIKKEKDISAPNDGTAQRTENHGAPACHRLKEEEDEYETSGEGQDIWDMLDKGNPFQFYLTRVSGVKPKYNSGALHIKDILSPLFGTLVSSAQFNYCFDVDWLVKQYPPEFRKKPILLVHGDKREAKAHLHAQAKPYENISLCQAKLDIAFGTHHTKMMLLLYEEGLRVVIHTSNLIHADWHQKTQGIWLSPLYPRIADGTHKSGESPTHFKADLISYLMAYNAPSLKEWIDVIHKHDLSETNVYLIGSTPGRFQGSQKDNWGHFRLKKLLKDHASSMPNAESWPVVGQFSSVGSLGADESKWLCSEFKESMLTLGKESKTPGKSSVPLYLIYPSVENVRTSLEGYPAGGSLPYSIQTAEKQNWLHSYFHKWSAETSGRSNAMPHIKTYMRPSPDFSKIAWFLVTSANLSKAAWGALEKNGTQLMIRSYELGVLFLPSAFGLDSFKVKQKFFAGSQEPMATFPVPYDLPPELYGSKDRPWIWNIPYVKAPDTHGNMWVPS

recombinant Tdp1 [6] = target: T2, recombinant Tdp1; assay: Tdp1 gel-based assay; assay type: biochemical; details: single-stranded N14Y substrate
Tdp1 [7] = details: ref [28], [29]; cited from earlier work

Chain of Tdp1 H493R (SCAN1 mutant) (Q9NUW8 whole entry H493R): as the sequence (Q9NUW8 whole entry) above, with H493R counted along it

SMILES: C[C@]12CC[C@H]3[C@@H](CCC4=CC(=O)CC[C@@]43C)[C@@H]1CC[C@@H]2C(=O)COS(=O)(=O)c1ccc(Br)cc1 [compound 1, 4-Pregnen-21-ol-3,20-dione-21-(4-bromobenzenesufonate)]
formation of Tdp1-DNA covalent complexes by H493R mutant [1]: concentration-dependent decrease | inhibition of APE1 [2]: No evidence for inhibition | enhancement of CPT-induced Top1-DNA cleavage complexes [3]: did not observe an enhancement | inhibitory activity against Tdp1 in high-throughput screen (Tdp1 [4]): low micromolar concentrations | effect in combination with camptothecin in HCT116 cells (HCT116 cells): only an additive effect | activity by itself in HCT116 cells (HCT116 cells; up to 25 μM): limited activity | inhibition of human Top1 (DNA relaxation) (human Top1): No evidence for inhibition | binding to surface-bound Tdp1 (SPR) (recombinant Tdp1 [5]): direct binding

SMILES: C[C@]12CC[C@H]3[C@@H](CCC4=CC(=O)CC[C@@]43C)[C@@H]1CC[C@@H]2C(=O)COS(C)(=O)=O [compound 7]
Tdp1 inhibitory activity (in words) (recombinant Tdp1 [6]): minimally active | binding to surface-bound Tdp1 (SPR) (recombinant Tdp1 [5]): No interaction

SMILES: [O]=[V]([O-])([O-])[O-] [vanadate]
concentration at which Tdp1 is inhibited (Tdp1 [7]): millimolar concentrations

SMILES: [O]=[W](=[O])([O-])[O-] [tungstate]
concentration at which Tdp1 is inhibited (Tdp1 [7]): millimolar concentrations

Tdp1 inhibitory activity (in words) (recombinant Tdp1 [6]): weakly active
SMILES: CC(=O)[C@H]1CC[C@H]2[C@@H]3CCC4=CC(=O)CC[C@]4(C)[C@H]3CC[C@]12C [progesterone, reference compound]
